Common to all, as to format: cell-based
Test [1] relates to sonic hedgehog pathway. The test can be described thus: Human hedgehog reporter assay Daoy-GliLuc (DGL). Particulars: Daoy human medulloblastoma cells, Gli-luciferase reporter; read-out: Daoy Avg. EC50. In short, it runs like this: (§1)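 Luminescence read-out of gli-promoter luciferase in stably transfected cells; 11-point 1:3 dose curves, 24 h compound exposure in 0.5% FBS, ± octyl-modified Hh protein 1–5 ng/ml. AMAX as % of plate low/high controls; EC50 from curve; >20% AMAX counted active.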

Test [2] has as its system sonic hedgehog pathway. The test can be described thus: Human hedgehog reporter assay HEPM-GliLuc (HGL). The note with it: HepM human embryonic palatal mesenchymal cells, Gli-luciferase reporter. The procedure, abridged: as §1
Test [3] relates to sonic hedgehog pathway. As to the kind of experiment: Hedgehog pathway Gli-luciferase reporter assay, TM3 cells. Particulars: TM3 mouse Leydig cells. The procedure, abridged:
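Agonist mode: cells carrying a luciferase gene downstream of the gli promoter received compound at 1–5 μM in 0.5% FBS for 24 h, optionally sensitised with 1–5 ng/ml octyl-modified hedgehog protein; luminescence gave % activation and EC50.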
Background: A reporter such as luciferase makes a cellular process visible.

Structures can show the parent of a compound that is named as a salt.

For orientation: EC50 means the concentration that produces a half-maximal response.

For the compound `CN[C@H]1CC[C@@H](N(Cc2cc(-c3ccc(C(=O)C(F)(F)F)cc3)ccc2OC)C(=O)c2sc3c(F)ccc(F)c3c2Cl)CC1` [Compound 349, 3-Chloro-4,7-difluoro-benzo[b]thiophene-2-carboxylic acid [4-methoxy-4′-(2,2,2-trifluoro-acetyl)-biphenyl-3-ylmethyl]-(4-methylamino-cyclohexyl)-amide trifluoroacetate], the EC50 in test [1], in test [2] and in test [3] was below 0.05 µM in each case.

Take `CN[C@H]1CC[C@@H](N(Cc2cc(-c3cc(C)nc(C)c3)ccc2OC)C(=O)c2sc3c(F)ccc(F)c3c2Cl)CC1` [Compound 350, 3-Chloro-4,7-difluoro-benzo[b]thiophene-2-carboxylic acid [5-(2,6-dimethyl-pyridin-4-yl)-2-methoxy-benzyl]-(4-methylamino-cyclohexyl)-amide dihydrochloride]: the EC50 in test [1] was below 0.05 µM; in test [2], 0.05 to 0.25 µM; in test [3] it was below 0.05 µM.

With `CN[C@H]1CC[C@@H](N(Cc2cc(-c3cc(C)nc(C)c3)ccc2OC)C(=O)c2sc3cccc(F)c3c2Cl)CC1` [Compound 353, 3-Chloro-4-fluoro-benzo[b]thiophene-2-carboxylic acid [5-(2,6-dimethyl-pyridin-4-yl)-2-methoxy-benzyl]-(4-methylamino-cyclohexyl)-amide dihydrochloride], the concentration for a half-maximal effect (EC50) was 0.05 to 0.25 µM in test [1], 0.05 to 0.25 µM in test [2] and below 0.05 µM in test [3].

Regarding `CN[C@H]1CC[C@@H](N(Cc2cc(-c3ccnc(N(C)C)c3)ccc2OC)C(=O)c2sc3c(F)ccc(F)c3c2Cl)CC1` [Compound 358, 3-Chloro-4,7-difluoro-benzo[b]thiophene-2-carboxylic acid [5-(2-dimethylamino-pyridin-4-yl)-2-methoxy-benzyl]-(4-methylamino-cyclohexyl)-amide dihydrochloride], the EC50 in test [1], in test [2] and in test [3] was below 0.05 µM each time.

`CNC1CCC(N(Cc2cc(-c3ccc(N)nc3C)ccc2OC)C(=O)c2sc3ccccc3c2Cl)CC1` (stereo not drawn) [Compound 398, 3-Chloro-benzo[b]thiophene-2-carboxylic acid [5-(6-amino-2-methyl-pyridin-3-yl)-2-methoxy-benzyl]-(4-methylamino-cyclohexyl)-amide dihydrochloride]: the values for the EC50 in test [1], in test [2] and in test [3] were 0.25 to 1 µM, 1 to 2.5 µM and 1 to 2.5 µM, respectively.

As to `CCOc1ccc(-c2ccc(NC)nc2)cc1CN(C(=O)c1sc2ccccc2c1Cl)[C@H]1CC[C@H](NC)CC1` [Compound 399, 3-Chloro-benzo[b]thiophene-2-carboxylic acid [2-ethoxy-5-(6-methylamino-pyridin-3-yl)-benzyl]-(4-methylamino-cyclohexyl)-amide dihydrochloride], the EC50 in test [1] was 0.25 to 1 µM; in test [2], 1 to 2.5 µM; in test [3] it was 1 to 2.5 µM.

In the case of `CCOc1ccc(-c2cnc(NC)nc2)cc1CN(C(=O)c1sc2ccccc2c1Cl)[C@H]1CC[C@H](NC)CC1` [Compound 402, 3-Chloro-benzo[b]thiophene-2-carboxylic acid [2-ethoxy-5-(2-methylamino-pyrimidin-5-yl)-benzyl]-(4-methylamino-cyclohexyl)-amide dihydrochloride], the EC50 in test [1] lay in the range of 0.05 to 0.25 µM; in test [2], 0.25 to 1 µM; in test [3] it was 1 to 2.5 µM.

Turning to `CN[C@H]1CC[C@H](N(Cc2cc(-c3ccc(C(C)=O)cc3)ccc2F)C(=O)c2sc3ccccc3c2Cl)CC1` [Compound 419, 3-Chloro-benzo[b]thiophene-2-carboxylic acid (4′-acetyl-4-fluoro-biphenyl-3-ylmethyl)-(4-methylamino-cyclohexyl)-amide trifluoroacetate], the results for the EC50 in test [1], in test [2] and in test [3] were 0.05 to 0.25 µM, 0.25 to 1 µM and below 0.05 µM, respectively.

Source of the values: US20080182859A1 (Curis, Inc., priority 2006, published 2008).
